Data set [1] has as its target T1, human recombinant USP2a catalytic domain (residues 258-605) (Homo sapiens, UniProt O75604).
T1 sequence (O75604 258-605): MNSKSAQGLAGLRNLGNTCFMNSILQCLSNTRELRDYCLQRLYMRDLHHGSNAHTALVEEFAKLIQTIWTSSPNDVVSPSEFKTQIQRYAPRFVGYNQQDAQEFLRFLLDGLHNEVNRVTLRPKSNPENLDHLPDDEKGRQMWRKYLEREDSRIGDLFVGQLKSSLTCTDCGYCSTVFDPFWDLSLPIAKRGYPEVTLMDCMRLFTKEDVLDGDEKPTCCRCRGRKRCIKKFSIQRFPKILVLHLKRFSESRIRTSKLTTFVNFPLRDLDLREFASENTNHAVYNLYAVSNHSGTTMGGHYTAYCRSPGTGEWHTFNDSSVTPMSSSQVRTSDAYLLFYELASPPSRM
In words: Di-Ub K63-2 hydrolysis (FRET) assay. The settings on record: read-out: IC50, USP2a activity, Di-Ub Assay; Di-Ub K63-2, 30 min pre-incubation.
Procedure: (§4) The assays were performed using Infinite 200 PRO – Tecan plate reader and 96-well, black Greiner microplates in a 100 μl reaction volume.
Di-Ub K63-2 hydrolysis assay was performed in 50 mM Tris/HCl pH=7.5, 1mM DTT. USP2a (20 nM) was preincubated with an excess of tested compound for 30 min. Fluorescence changes were recorded at excitation and emission wavelengths of 540 nm and 580 nm respectively, immediately after Di-Ub (200 nM, LifeSensors) addition.
(§5) All assays were performed simultaneously in triplicate and results are presented as mean values ± SD.

In data set [2] the target is T1, human recombinant USP2a catalytic domain (residues 258-605). In words: Ub-AMC hydrolysis assay. The settings on record: 30 min pre-incubation; for IC50: read-out: IC50, USP2a activity, Ub-AMC Assay.
Procedure: as §4
Ub-AMC-hydrolysis assay was performed in a reaction buffer (50 mM Tris/HCl, pH=7.5, 1 mM EDTA, 1 mM MgCl2).
as §5
Data set [3] addresses T2, USP7 (Homo sapiens, UniProt Q93009).
T2 construct: Human USP7 catalytic domain (residues 208-561) was cloned into the pGEX-6P-1 vector; GST (N, cleaved yes); made in house; host or cells: E. coli BL21 (DE3)
In words: Ub-AMC assay, USP7 selectivity. Format: biochemical. The settings on record: 10 μM.
Procedure: Cells were grown in LB medium containing 100 μg/ml ampicillin at 37 °C and induced with 0.5 mM IPTG at OD600 of 0.7-0.9 and cultured overnight at 16 °C. Cells were harvested by centrifugation. Next cells were resuspended in buffer A (50 mM Tris/HCl pH 9.0, 50 mM NaCl, 3 mM β-mercapthoetanol) and disrupted by sonication. Cell lysate were clarified by centrifugation (45 000 g, 40 min.) and dialyzed against buffer A. Supernatant was loaded onto Q-Sepharose column and proteins were eluted with NaCl gradient. Fractions containing GST fused USP7 were combined, concentrated and dialyzed against buffer (50 mM Tris/HCl pH 7.0, 50 mM NaCl, 3 mM β-mercapthoetanol). During dialysis protein was digested with PreScission Protease (GE Healthcare). USP7 protein and cleaved GST were separated on Mono Q HR 10/10 column (GE Healthcare). The last purification step consisted of size exclusion chromatography on HiLoad 16/60 Superdex 75 prep grade (GE Healthcare) in 50 mM Tris/HCl, 150 mM NaCl, 2 mM DTT.

The subject of data set [4] is HCT116 p53^wt cells. The experiment in a line: MTT assay (cell viability), 6 days treatment. In kind it is cell-based, Human. The settings on record: for growth-inhibitory (GI) properties: cell-based assay (discussion); for LD50 (concentration killing 50% of cells): Homo sapiens, HCT-116, 144 h, read-out: LD50. On the procedure:
(§1) To test the biological activity of the compounds, we performed MTT (3-(4,5-dimethylthiazol-2-yl)-2,5-diphenyltetrazolium bromide) and lactate dehydrogenase (LDH) release assays. […] To track not only the toxic (lethal) but also growth-inhibitory (GI) effect in the MTT assay, we treated the cells for 6 days.
(§2) For MTT assay, the cells were seeded on 96-well transparent plates and treated the next day with the compounds or DMSO for 6 days. Thiazolyl Blue Tetrazolium Bromide (MTT, Sigma Aldrich) was added for 60 minutes to a final concentration of […]. The medium was removed and MTT crystals were dissolved in isopropanol supplemented with 40 mM HCl. The absorbance was measured with Infinite 200 microplate reader (Tecan Group Ltd.) at 570 nm with the reference wavelength 650 nm for background subtraction.
Background: Tetrazolium dyes change colour on reduction, which living cells bring about.

Data set [5] concerns HCT116 p53^−/− cells. The experiment in a line: Western blot analysis of protein expression. The settings on record: 5 or 20 μM, 48 hr. In kind it is cell-based, Human. An excerpt:
(§3) The progression from G1 to S phase relies largely on the expression and activity of D cyclins. To verify whether the observed impairment in cell-cycle progression following LCAHA treatment is associated with D cyclins, we investigated the expression of cyclins D1 and D3 in HCT116 p53^wt and HCT116 p53^−/− cells.
On the technique in general: Immunoblotting shows a protein as a band on a membrane.

Data set [6] deals with HCT116 p53^wt cells. In words: Western blot analysis of protein expression. In kind it is cell-based, Human. The settings on record: 5 or 20 μM, 48 hr.
Text: as §3

Data set [7] has as its system HCT116 p53^wt cells. In words: Western blot analysis of protein expression. Format: cell-based, Human. The settings on record: for expression of p27: 5 or 20 μM, 48 hr, HCT116 cells (Figures 2A and S3A); for expression of proteins encoded by p53-target genes (MDM2 and p21) and of p53: 24 or 48 hr.
The test system of data set [8] is HCT116 p53^−/− cells. In words: MTT assay (cell viability), 6 days treatment. In kind it is cell-based, Human. On the procedure: as §1, §2
Data set [9] in a line: Solubility problems in cell line experiment or enzymatic assay. Format: physicochemical. The settings on record: in either the cell line experiment or the enzymatic assay.
In data set [10] the test system is USP2a. Details: method as in Nicholson et al., 2008. The settings on record: ref Nicholson et al., 2008; read-out: EC50 (previously reported); cited from earlier work.
Data set [11] deals with HCT116 p53^wt cells. The experiment in a line: Caspase 3/7 activity (Caspase-Glo 3/7). In kind it is cell-based, Human. The settings on record: staurosporine treatment (apoptosis inducer control). As for the experimental part:
To evaluate whether the observed effects are accompanied by the induction of apoptosis, we examined the activation of caspases 3 and 7 in HCT116 p53^wt cells.
The cells were plated on the 96-well white, flat bottom plates (Falcon) and treated with DMSO, LCAHA or Staurosporine. For the detection of caspase activity Caspase-Glo 3/7 Assay System was used (Promega) according to the manufacturer’s instructions.

[12] abbreviates: Homo sapiens, HCT-116, 144 h, read-out: LD50.

Where two headings read alike, the source gives them in different places.

T2 sequence (Q93009 208-561): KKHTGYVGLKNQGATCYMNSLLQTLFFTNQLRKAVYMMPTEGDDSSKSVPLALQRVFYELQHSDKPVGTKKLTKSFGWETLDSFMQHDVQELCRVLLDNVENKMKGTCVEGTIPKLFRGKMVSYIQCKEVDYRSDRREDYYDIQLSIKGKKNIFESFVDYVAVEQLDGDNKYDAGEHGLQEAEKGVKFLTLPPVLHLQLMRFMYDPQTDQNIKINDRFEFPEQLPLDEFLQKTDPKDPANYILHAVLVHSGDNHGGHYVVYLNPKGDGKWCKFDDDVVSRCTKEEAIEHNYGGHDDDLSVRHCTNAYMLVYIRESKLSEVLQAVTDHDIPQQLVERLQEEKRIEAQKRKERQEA

On to `C[C@H](CCC(=O)O)[C@H]1CC[C@H]2[C@@H]3[C@H](O)C[C@@H]4C[C@H](O)CC[C@]4(C)[C@H]3C[C@H](O)[C@]12C` [CGG, cholic acid, reference compound], for which the IC50 in data set [1] was greater than 100 µM. In addition, the “IC50, USP2a activity, Ub-AMC Assay” value in [2] is on record as “not active”.

Turning to `C[C@H](CCC(=O)O)[C@H]1CC[C@H]2[C@@H]3CC[C@@H]4C[C@H](O)CC[C@]4(C)[C@H]3CC[C@]12C` [LCA, Lithocholic acid, reference compound], the “inhibition of USP7 protein activity” value in data set [3] was “no inhibition”. The “growth-inhibitory (GI) properties” value in data set [4] is “inactive in the inhibition of cell growth”. In addition, in [1], the IC50 was 32 ± 3.2 µM. In data set [5], the “cyclin D1 expression” value was “did not affect” and the “cyclin D3 expression” value is “significantly increased”. Besides, in data set [6], the “cyclin D1 expression” value is “did not affect” and the “cyclin D3 expression” value was “significantly increased”. The half-maximal inhibitory concentration (IC50) in data set [2] worked out at 31.1 ± 3.4 µM. Further, in data set [7], the “expression of p27” value is “not altered”; the “expression of proteins encoded by p53-target genes (MDM2 and p21) and of p53” value was “did not induce”.

As to `C[C@H](CCC(=O)NCC#N)[C@H]1CC[C@H]2[C@@H]3CC[C@@H]4C[C@H](O)CC[C@]4(C)[C@H]3CC[C@]12C` [LCACN, N-(cyanomethyl)-3-hydroxylithocholanamide], the LD50 in data set [8] (setting [12]) came out at 29.9 ± 3.2 µM. The LD50 (concentration killing 50% of cells) in data set [4] stood at 28 ± 0.7 µM. Besides, the IC50 is 13.9 ± 2.3 µM in data set [1] and 7.4 ± 1.2 µM in [2]. Further, the solubility result in data set [9] was “solubility problems”.

With `CC(=O)O[C@@H]1CC[C@@]2(C)[C@H](CC[C@@H]3[C@@H]2CC[C@]2(C)[C@@H]([C@H](C)CCC(=O)O)CC[C@@H]32)C1` [LCAE, 3-Acetoxy-Lithocholic Acid], the “growth-inhibitory (GI) properties” value in data set [4] was “no GI properties”. Moreover, the “cyclin D3 expression” value in data set [5] is listed as “no effect”. In addition, in data set [6], the “cyclin D1 expression” value is given as “decreased the expression of the protein” and the “cyclin D3 expression” value is given as “no effect”. For the same compound, in [7], the “expression of p27” value is “not altered”; the “expression of proteins encoded by p53-target genes (MDM2 and p21) and of p53” value is reported as “did not induce”.

With `C[C@H](CCC(=O)NCC(=O)O)[C@H]1CC[C@H]2[C@@H]3CC[C@@H]4C[C@H](O)CC[C@]4(C)[C@H]3CC[C@]12C` [LCAGLY, N-(3-hydroxylithocholanolyl)glycine], the IC50 in data set [1] and in data set [2] was greater than 50 µM each time.

On to `C[C@H](CCC(=O)O)[C@H]1CC[C@H]2[C@@H]3CC[C@@H]4CC(=O)CC[C@]4(C)[C@H]3CC[C@]12C` [LCAK, 3-Oxo-Lithocholic Acid], for which the results for the IC50 in [1] and in data set [2] were 33.1 ± 3.2 µM and 32 ± 1.8 µM, respectively.

In the case of `COC(=O)CC[C@@H](C)[C@H]1CC[C@H]2[C@@H]3CC[C@@H]4C[C@H](O)CC[C@]4(C)[C@H]3CC[C@]12C` [LCAME, Methyl 3-Hydroxylithocholanoate], the LD50 amounted to 35.1 ± 4.8 µM in data set [8] (HCT116 p53^−/−, MTT assay, 6 days) and 20.5 ± 1.1 µM in data set [4] (HCT116^wt, MTT assay, 6 days). In addition, the IC50 in [1] and in data set [2] was greater than 50 µM in each case.

Consider `C[C@H](CCC(=O)N1CCOCC1)[C@H]1CC[C@H]2[C@@H]3CC[C@@H]4C[C@H](O)CC[C@]4(C)[C@H]3CC[C@]12C` [LCAMR, N-lithocholanolyl Morpholine], for which, in [8] (setting [12]), the LD50 stood at 7.9 ± 0.7 µM. Further, the LD50 (concentration killing 50% of cells) in data set [4] turned out to be 8.2 ± 0.7 µM. Also, the IC50 in data set [1] and in data set [2] was greater than 100 µM in each case.

In the case of `C[C@H](CCC(N)=O)[C@H]1CC[C@H]2[C@@H]3CC[C@@H]4C[C@H](O)CC[C@]4(C)[C@H]3CC[C@]12C` [LCANH2, 3-hydroxylithocholanamide], the LD50 in data set [8] (setting [12]) amounted to 41.8 ± 2.7 µM. Besides, in [4], the LD50 (concentration killing 50% of cells) came out at 24.5 ± 0.9 µM. The IC50 came to 16.7 ± 1.3 µM in data set [1] and 27.9 ± 1 µM in data set [2].

`Cc1ccc(/C=C2\CNC/C(=C\c3ccc(C)cc3)C2=O)cc1` [NSC 632839, reference compound]: the EC50 in data set [10] is 45 ± 4 µM. Also, the IC50 in data set [1] is greater than 50 µM; in data set [2] it was 39.1 ± 6.4 µM.

Consider `C[C@H](CCC(=O)NCCS(=O)(=O)O)[C@H]1CC[C@H]2[C@@H]3[C@H](O)C[C@@H]4C[C@H](O)CC[C@]4(C)[C@H]3C[C@H](O)[C@]12C` [TCAS, taurocholic acid, reference compound], for which the “IC50, USP2a activity, Ub-AMC Assay” value in [2] is “not active”.

Take `C[C@H](CCC(=O)O)[C@H]1CC[C@H]2[C@@H]3[C@@H](O)C[C@@H]4C[C@H](O)CC[C@]4(C)[C@H]3CC[C@]12C` [UDCA, ursodeoxycholic acid, reference compound]: in data set [1], the IC50 is greater than 100 µM. The “IC50, USP2a activity, Ub-AMC Assay” value in data set [2] is recorded as “not active”.

For `CN[C@@H]1C[C@H]2O[C@@](C)([C@@H]1OC)n1c3ccccc3c3c4c(c5c6ccccc6n2c5c31)C(=O)NC4` [staurosporine, reference compound], the “activity of caspases 3 and 7” value in data set [11] is given as “strong increase”.

The term IC50 denotes the point on the concentration scale where inhibition reaches its midpoint. A word on the EC50: it is the concentration at which the effect is half-maximal.

These data come from paper PMC5404848 (Cell Chemical Biology, 2017).
